Experimental data: PMC10269165 (Antimicrobial Agents and Chemotherapy, 2023)

How the values were obtained:
[1] = test system: nematode PMTs (HcPMT1, AcPMT1, AsPMT, DvPMT1, OdPMT1, TcPMT); test: Cross-inhibition of the panel of nematode PMTs (statements on all PMTs together); assay type: biochemical, parasitic nematodes; conditions: for cross-inhibitory activity against all the five PMTs: 40 μM, AcPMT1, AsPMT, DvPMT1, OdPMT1, TcPMT; for SI values based on the IC50^Enzyme values of the PMT proteins tested: all six PMTs of Table 4
Protocol: The chemical compounds were obtained from the National Cancer Institute/Developmental Therapeutics Program Open Chemical Repository. The library consisted of 419 compounds categorized as Natural Products Set IV (see Table S1). Compounds were individually reconstituted in molecular biology grade dimethyl sulfoxide (DMSO) from Sigma-Aldrich to a stock concentration of 10 mM and stored at −20°C until use. Initial screening was conducted using recombinant HcPMT1 protein as enzyme in the methyltransferase assay, with test compounds at a final concentration of 40 μM. The test reaction mixtures consisted of 40 μM test compound, 2.5 μL of SAM-free methyltransferase reaction buffer, 150 μM PE (pH 7.5), 120 μM SAM (pH 7.8), and 20 ng/μL of HcPMT1 protein, and the final volume made up to 50 μL with 1× transferase assay buffer. […] To the positive reaction mixture, instead of test compound, an equivalent volume of DMSO was added. In the negative-control reaction mixture, instead of HcPMT1 and test compound, equivalent volumes of 1× transferase buffer and DMSO, respectively, were added. Detection buffer (100 μL) containing fluorescence substrate was added into each reaction mixture. The reactions were prepared in triplicate wells in 96-well plates. The plates were covered in aluminum foil and incubated at room temperature with agitation for 30 min, followed by reading the fluorescence at 380EX/520EM. The mean percent inhibition (MPI) of the test compound on enzymatic activity was calculated using the following formula: MPI = ΔRFUpositive control − ΔRFUcompounds/ΔRFUpositive control × 100, where the positive control is a reaction without compound but with recombinant PMT protein and a volume of DMSO equivalent to that of compound used in test reactions; the negative control is the reaction without protein and compounds, but with volumes of dialysis buffer and DMSO equivalent to protein and compound added in the test reaction mixtures, respectively; ΔRFUpositive control represents the absolute relative fluorescence units (RFU) for the positive control, which equals RFUpositive control – RFUnegative control; and ΔRFUcompounds represents the absolute RFU value for the sample with the compounds, which equals RFUcompounds – RFUnegative control.
Compounds that had shown more than 50% inhibition on HcPMT1 activity and had no or very low cytotoxicity against HCT-8 cells were further tested for cross-inhibitory effect against the enzymatic activity of other recombinant PMT proteins (AcPMT1, AsPMT, DvPMT1, OdPMT, and TcPMT) at 40 μM. The enzymatic assay was set up as described above, with the respective PMT protein as enzyme. Compounds that depicted cross-inhibitory activity were further tested at various concentrations to derive their half-maximal effective concentrations (EC50) using nonlinear regression analysis by GraphPad Prism software.

[2] = test system: PMT-complemented mutant yeast; test: Growth inhibition of complemented yeast (statement on PMT-complemented strains together); assay type: cell-based, Saccharomyces cerevisiae; conditions: various concentrations
Protocol: To determine the effect of PMT inhibitors on the growth of PMT- and LacZ-complemented pem1Δpem2Δ S. cerevisiae, the yeast cells were first starved of choline as described above, and the cells were diluted to an OD600 of ~0.6. The PMT-complemented yeast cells were cultured in SG medium (3.4g/L yeast nitrogen base without amino acids, 2% galactose, 30 mg/L histidine, 100 mg/L leucine, 100 mg/L adenine, and 50 mg/L tryptophan) supplemented with 1 mM ethanolamine hydrochloride, while the LacZ-complemented yeast cells were cultured in SG medium supplemented with 1 mM choline chloride. Compounds that depicted cross-inhibitory activity against PMT proteins in vitro were added at various concentrations to the cultures. As a negative control, DMSO (at a final concentration not exceeding 2% [vol/vol]) was added to yeast cultures designated control cultures. The cultures were incubated at 30°C with shaking at 275 rpm for 4 days. On a daily basis during the course of culture, 200-μL portions of culture aliquots were taken, and their OD600s were measured using a microplate reader. In preliminary work, we had observed that the growth of PMT- and LacZ-complemented pem1Δpem2Δ S. cerevisiae plateaued at 3 to 4 days of culture. Therefore, to determine the inhibitory effect of nematode PMT inhibitors on the growth of PMT- and LacZ-complemented pem1Δpem2Δ S. cerevisiae, measurements taken on day 3 were used. The results were presented as percentage of growth rate using the following formula: PGR = growth rate (plus inhibitor)/growth rate (minus inhibitor) × 100 where the percent growth rate (PGR) is the growth rate of inhibitor-treated PMT- or LacZ- complemented Pem1Δpem2Δ S. cerevisiae, considering the growth rate of untreated PMT- or LacZ- complemented Pem1Δpem2Δ S. cerevisiae is 100%; the growth rate = ΔA600^Day 3/ΔA600^Day 0; ΔA600^Day 0 is the absolute value of A600 of PMT- or LacZ- complemented pem1Δ/pem2Δ S. cerevisiae at day 0, which equals the A600 of the culture minus the A600 of the growth medium only; ΔA600^Day 3 is the absolute value of the A600 of PMT- or LacZ complemented pem1Δ/pem2Δ S. cerevisiae at day 3, which equals the A600 of the culture at day 3 minus the A600 of growth medium only; the growth rate (plus inhibitor) is the growth rate of PMT- or -LacZ complemented pem1Δpem2Δ S. cerevisiae in the presence of test compound; and the growth rate (minus inhibitor) is the growth rate of the PMT- or LacZ complemented pem1Δ/pem2Δ S. cerevisiae in the absence of test compound, but with a volume of DMSO equal to that of compound added in the treated culture. The dose-response curves were generated with GraphPad Prism software and IC50 concentrations of the compounds in PMT- and LacZ-complemented yeast cells derived.

SMILES | cross-inhibitory activity against all the five PMTs [1] | SI values based on the IC50^Enzyme values of the PMT proteins tested [1] | effect on the growth of PMT-complemented mutant yeast [2]
COc1ccc(-c2c(C)c(C(=O)O)nc(-c3ccc4c(O)c(OC)c5c(c4n3)=NC(C)(C)N=5)c2N)c(O)c1OC [NSC62709] | significant cross-inhibitory activity | > 1 | concentration-dependent inhibitory effect
COc1cc(C)c2c(c1C=O)Oc1c(c(C)c(O)c3c1C(O)OC3=O)OC2=O (stereo not drawn) [NSC87511] | significant cross-inhibitory activity |  | concentration-dependent inhibitory effect
CO[C@@]12[C@H](COC(N)=O)C3=C(C(=O)C(C)=C(N)C3=O)N1C[C@H]1[C@@H]2N1C (stereo partly drawn) [NSC56410] | significant cross-inhibitory activity |  | concentration-dependent inhibitory effect
O=c1c(O)cccc2cc(O)c(O)c(O)c12 [NSC35676, purpurogallin] | significant cross-inhibitory activity | > 1 | concentration-dependent inhibitory effect
CO[C@@H]1/C=C\O[C@]2(C)Oc3c(C)c(O)c4c(O)c(c(CN(C)C)c(O)c4c3C2=O)NC(=O)/C(C)=C\C=C[C@@H](C)[C@@H](O)[C@H](C)[C@@H](O)[C@H](C)[C@H](OC(C)=O)[C@@H]1C [NSC145612] | significant cross-inhibitory activity | > 1 | concentration-dependent inhibitory effect
CO[C@H]1/C=C/O[C@@]2(C)Oc3c(C)c(O)c4c(O)c(cc(O)c4c3C2=O)NC(=O)/C(C)=C\C=C\[C@H](C)[C@H](O)[C@@H](C)[C@@H](O)[C@@H](C)[C@H](OC(C)=O)[C@@H]1C [NSC133100] | significant cross-inhibitory activity | > 1 | concentration-dependent inhibitory effect
CO[C@@H]1/C=C/O[C@@]2(C)Oc3c(C)c(O)c4c(c3C2=O)C(=N[C@@H]2CC[C@@H](O)O[C@H]2C)C=C(NC(=O)/C(C)=C\C(=O)[C@@H]2C[C@@H]2[C@H](O)[C@@H](C)[C@@H](O)[C@@H](C)[C@H](OC(C)=O)[C@@H]1C)C4=O [NSC177383] | significant cross-inhibitory activity | > 1 | 
